One block for each molecule: values may come before it.
Experiments:
[1] = [M+H]+; instrument: TW
[2] = instrument: DT, single field, calibrated with Agilent tune mix (Agilent)
[3] = instrument: TW, calibrated with phosphatidylcholines (ESI+) and phosphatidylethanolamines (ESI-)
[4] = instrument: DT, stepped-field

Structure (SMILES): C[C@]12C=CC3=C4CCC(=O)C=C4CC[C@H]3[C@@H]1CC[C@@H]2O [17B-Trenbolone]
collision cross section (N2) [1]: 163.3 Å²

Structure (SMILES): C[C@]12CC[C@H]3[C@@H](CCC4=CC(=O)CC[C@H]43)[C@@H]1CC[C@H]2O [17a-Nortestosterone]
collision cross section (N2) [1]: 165.7 Å²

Structure (SMILES): CC12C=CC3=C4CCC(=O)C=C4CCC3C1CCC2O (stereo not drawn) [17a-Trenbolone]
collision cross section (N2) [1]: 163.3 Å²

Structure (SMILES): CNC(=O)ON=CC(C)(C)S(C)=O (stereo not drawn) [Aldicarb sulfoxide]
collision cross section (N2) [1]: 145.4 Å²

Structure (SMILES): CO/C=C(/C(=O)OC)c1ccccc1Oc1cc(Oc2ccccc2C#N)ncn1 [Azoxystrobin]
collision cross section (N2) [1]: 195.75 Å²

Structure (SMILES): CC(C)(C)NCC(O)c1cc(Cl)c(N)c(Br)c1 (stereo not drawn) [Bromchlorbuterol]
collision cross section (N2) [1]: 165.2 Å²

Structure (SMILES): C=CCOC(=O)C(C)(C)OC(=O)c1cc(-n2c(=O)cc(C(F)(F)F)n(C)c2=O)ccc1Cl [Butafenacil]
collision cross section (N2) [1]: 208.59 Å²

Structure (SMILES): COC(=O)Nc1nc2ccccc2[nH]1 [Carbendazim]
collision cross section (N2) [1]: 134.94 Å²

Structure (SMILES): CON(C)C(=O)Nc1ccc(Br)c(Cl)c1 [Chlorbromuron]
collision cross section (N2) [1]: 152.25 Å²

Structure (SMILES): COc1nc(C)nc(NC(=O)NS(=O)(=O)c2ccccc2Cl)n1 [Chlorsulfuron]
collision cross section (N2) [1]: 175.29 Å²

Structure (SMILES): CC(C)NCC(O)c1ccc(N)c(C#N)c1 (stereo not drawn) [Cimaterol]
collision cross section (N2) [1]: 155.4 Å²

Structure (SMILES): CCC(C)(C)NCC(O)c1cc(Cl)c(N)c(Cl)c1 (stereo not drawn) [Clenpenterol]
collision cross section (N2) [1]: 165 Å²

Structure (SMILES): Clc1ccccc1-c1nnc(-c2ccccc2Cl)nn1 [Clofentezine]
collision cross section (N2) [1]: 161.9 Å²

Structure (SMILES): Cc1cc(C2CC2)nc(Nc2ccccc2)n1 [Cyprodinil]
collision cross section (N2) [1]: 152.07 Å²

Structure (SMILES): Nc1nc(N)nc(NC2CC2)n1 [Cyromazine]
collision cross section (N2) [1]: 133.23 Å²

Structure (SMILES): Nc1ccc(S(=O)(=O)c2ccc(N)cc2)cc1 [Dapsone]
collision cross section (N2) [1]: 149.9 Å²

The remaining lines, values ahead:

collision cross section (N2) [1]: 165.5 Å²
Structure (SMILES): CC(C)NCC(O)COc1cccc2[nH]c3ccccc3c12 (stereo not drawn) [Carazolol]

collision cross section (N2) ([2]; [M+NH4]+): 279.1 Å²
collision cross section (N2) ([2]; [M-H]-): 264.3 Å²
collision cross section (N2) ([3]; [M-H]-): 263.4 Å²
Structure (SMILES): CCCCC/C=C\C/C=C\C/C=C\CCCCC(=O)O[C@H](COC(=O)CCCCCCCCC/C=C\CCCCCCCC)COP(=O)(O)O [PA(38:4)]

collision cross section (N2) ([2]; [M+H]+): 284.5 Å²
collision cross section (N2) ([3]; [M+H]+): 284.1 Å²
Structure (SMILES): CCCCC/C=C\C/C=C\C/C=C\C/C=C\C/C=C\CCC(=O)O[C@H](COC(=O)CCCCCCCCCCCCC)COP(=O)([O-])OCC[N+](C)(C)C [PC(36:5)]

collision cross section (N2) ([2]; [M+H]+): 295 Å²
collision cross section (N2) ([3]; [M+CH3COO]-): 296.7 Å²
collision cross section (N2) ([3]; [M+H]+): 291.9 Å²
Structure (SMILES): CCCCC/C=C\C/C=C\CCCCCCCCCC(=O)O[C@H](COC(=O)CCCCCCCCC/C=C\CCCCCC)COP(=O)([O-])OCC[N+](C)(C)C [PC(38:3)]

collision cross section (N2) ([2]; [M+HCOO]-): 293 Å²
collision cross section (N2) ([2]; [M+H]+): 292.9 Å²
collision cross section (N2) ([2]; [M+Na]+): 296.8 Å²
collision cross section (N2) ([3]; [M+CH3COO]-): 295.4 Å²
collision cross section (N2) ([3]; [M+H]+): 289.7 Å²
Structure (SMILES): CCCCC/C=C\C/C=C\C/C=C\CCCCC(=O)OC[C@H](COP(=O)([O-])OCC[N+](C)(C)C)OC(=O)CCCCCCCCC/C=C\C/C=C\CCCCC [PC(38:5)]

collision cross section (N2) ([2]; [M+H]+): 288.2 Å²
collision cross section (N2) ([3]; [M+H]+): 286.5 Å²
Structure (SMILES): CC/C=C\C/C=C\C/C=C\C/C=C\CCCCC(=O)O[C@H](COC(=O)CCCCCC/C=C\C/C=C\C/C=C\CCCCC)COP(=O)([O-])OCC[N+](C)(C)C [PC(38:7)]

collision cross section (N2) ([2]; [M+H]+): 298.8 Å²
collision cross section (N2) ([2]; [M+Na]+): 302 Å²
collision cross section (N2) ([3]; [M+H]+): 295.5 Å²
Structure (SMILES): CCCCC/C=C\C/C=C\C/C=C\C/C=C\CCCCCC(=O)O[C@H](COC(=O)CCCCCCC/C=C\CCCCCCCC)COP(=O)([O-])OCC[N+](C)(C)C [PC(40:5)]

collision cross section (N2) ([2]; [M+H]+): 293.6 Å²
collision cross section (N2) ([3]; [M+H]+): 293.2 Å²
Structure (SMILES): CCCCC/C=C\C/C=C\C/C=C\C/C=C\CCCCCC(=O)O[C@H](COC(=O)CCCC/C=C\C/C=C\C/C=C\CCCCC)COP(=O)([O-])OCC[N+](C)(C)C [PC(40:7)]

collision cross section (N2) ([4]; [M+Na]+): 288.5 Å²
collision cross section (N2) ([2]; [M+H]+): 281.3 Å²
collision cross section (N2) ([2]; [M+Na]+): 287.5 Å²
collision cross section (N2) ([2]; [M-H]-): 269.9 Å²
collision cross section (N2) ([3]; [M+H]+): 278.7 Å²
collision cross section (N2) ([3]; [M-H]-): 268.8 Å²
Structure (SMILES): CCCCCCCCCC/C=C\CCCCCCCCCC(=O)O[C@H](COC(=O)CCCCCCCCCCCCC)COP(=O)(O)OCCN [PE(36:1)]

collision cross section (N2) ([4]; [M+Na]+): 280.6 Å²
collision cross section (N2) ([2]; [M+Na]+): 281.2 Å²
collision cross section (N2) ([2]; [M-H]-): 265.2 Å²
collision cross section (N2) ([3]; [M-H]-): 265.7 Å²
Structure (SMILES): CCCCC/C=C\C/C=C\C/C=C\CCCCCCC(=O)O[C@H](COC(=O)CCCCCCC/C=C\CCCCCC)COP(=O)(O)OCCN [PE(36:4)]

collision cross section (N2) ([4]; [M+K]+): 288.7 Å²
collision cross section (N2) ([4]; [M+Na]+): 285 Å²
collision cross section (N2) ([2]; [M+Na]+): 283.6 Å²
collision cross section (N2) ([2]; [M-H]-): 269.8 Å²
collision cross section (N2) ([3]; [M+H]+): 275.7 Å²
collision cross section (N2) ([3]; [M-H]-): 269.2 Å²
Structure (SMILES): CC/C=C\C/C=C\C/C=C\C/C=C\CCCCC(=O)OC[C@H](COP(=O)(O)OCCN)OC(=O)CCCCCCCCC/C=C\C/C=C\CCCCC [PE(38:6)]

collision cross section (N2) ([4]; [M+Na]+): 289.2 Å²
collision cross section (N2) ([2]; [M+Na]+): 287.3 Å²
collision cross section (N2) ([3]; [M+H]+): 280.7 Å²
Structure (SMILES): CC/C=C\C/C=C\C/C=C\C/C=C\CCCCC(=O)OC[C@H](COP(=O)(O)OCCN)OC(=O)CCCCC/C=C\C/C=C\C/C=C\C/C=C\CCCCC [PE(40:8)]

collision cross section (N2) ([2]; [M-H]-): 265.6 Å²
collision cross section (N2) ([3]; [M-H]-): 265.2 Å²
Structure (SMILES): CC/C=C\C/C=C\C/C=C\CCCCCCCC(=O)O[C@H](CO/C=C\CCCCCCCCCCCCCCCC)COP(=O)(O)OCCN [PE(p36:3)]

collision cross section (N2) ([2]; [M+H]+): 278 Å²
collision cross section (N2) ([3]; [M+H]+): 276.9 Å²
collision cross section (N2) ([3]; [M-H]-): 268.1 Å²
Structure (SMILES): CC/C=C\C/C=C\C/C=C\C/C=C\C/C=C\C/C=C\CCC(=O)O[C@H](CO/C=C\CCCCCCCCCCCCCC)COP(=O)(O)OCCN [PE(p38:6)]

collision cross section (N2) ([2]; [M-H]-): 276.1 Å²
collision cross section (N2) ([3]; [M+H]+): 284.7 Å²
collision cross section (N2) ([3]; [M-H]-): 274.8 Å²
Structure (SMILES): CC/C=C\C/C=C\C/C=C\C/C=C\C/C=C\CCCC(=O)O[C@H](CO/C=C\CCCCCCCCCCCCCCCCCC)COP(=O)(O)OCCN [PE(p40:5)]

collision cross section (N2) ([2]; [M+H]+): 299.3 Å²
collision cross section (N2) ([2]; [M+Na]+): 297.6 Å²
collision cross section (N2) ([2]; [M-H]-): 289.3 Å²
collision cross section (N2) ([3]; [M+Na]+): 293.3 Å²
collision cross section (N2) ([3]; [M-H]-): 288.7 Å²
Structure (SMILES): CCCC/C=C\CCCCCCCC(=O)OC[C@H](COP(=O)(O)O[C@H]1C(O)C(O)C(O)[C@@H](O)C1O)OC(=O)CCCCCCCCC/C=C\CCCCCCCCCC (stereo partly drawn) [PI(36:2)]

collision cross section (N2) ([2]; [M+H]+): 307.1 Å²
collision cross section (N2) ([2]; [M+NH4]+): 308.6 Å²
collision cross section (N2) ([2]; [M+Na]+): 305.8 Å²
collision cross section (N2) ([2]; [M-H]-): 297.7 Å²
collision cross section (N2) ([3]; [M+Na]+): 301.1 Å²
collision cross section (N2) ([3]; [M-H]-): 296.5 Å²
Structure (SMILES): CC/C=C\C/C=C\C/C=C\C/C=C\CCCCC(=O)OC[C@H](COP(=O)(O)O[C@H]1C(O)C(O)C(O)[C@@H](O)C1O)OC(=O)CCCCCCCCC/C=C\CCCCCCCCCC (stereo partly drawn) [PI(40:5)]

collision cross section (N2) ([2]; [M+NH4]+): 306.1 Å²
collision cross section (N2) ([2]; [M-H]-): 296.4 Å²
collision cross section (N2) ([3]; [M+Na]+): 299.8 Å²
Structure (SMILES): CC/C=C\C/C=C\C/C=C\C/C=C\C/C=C\C/C=C\CCC(=O)O[C@H](COC(=O)CCCCCCCCCCCCCCCCC)COP(=O)(O)O[C@H]1C(O)C(O)C(O)[C@@H](O)C1O (stereo partly drawn) [PI(40:6)]
